Results as given in patent US20250170267A1, “ANTIBODY-DRUG CONJUGATE PRECURSOR AND INTERMEDIATE FOR SYNTHESIS THEREOF” (UBE Corporation, priority 2022, published 2025).

Molecular target: T1, human topoisomerase I (Homo sapiens, UniProt P11387)
T1 construct: purchased Sigma T9069
T1 sequence (P11387 1-765): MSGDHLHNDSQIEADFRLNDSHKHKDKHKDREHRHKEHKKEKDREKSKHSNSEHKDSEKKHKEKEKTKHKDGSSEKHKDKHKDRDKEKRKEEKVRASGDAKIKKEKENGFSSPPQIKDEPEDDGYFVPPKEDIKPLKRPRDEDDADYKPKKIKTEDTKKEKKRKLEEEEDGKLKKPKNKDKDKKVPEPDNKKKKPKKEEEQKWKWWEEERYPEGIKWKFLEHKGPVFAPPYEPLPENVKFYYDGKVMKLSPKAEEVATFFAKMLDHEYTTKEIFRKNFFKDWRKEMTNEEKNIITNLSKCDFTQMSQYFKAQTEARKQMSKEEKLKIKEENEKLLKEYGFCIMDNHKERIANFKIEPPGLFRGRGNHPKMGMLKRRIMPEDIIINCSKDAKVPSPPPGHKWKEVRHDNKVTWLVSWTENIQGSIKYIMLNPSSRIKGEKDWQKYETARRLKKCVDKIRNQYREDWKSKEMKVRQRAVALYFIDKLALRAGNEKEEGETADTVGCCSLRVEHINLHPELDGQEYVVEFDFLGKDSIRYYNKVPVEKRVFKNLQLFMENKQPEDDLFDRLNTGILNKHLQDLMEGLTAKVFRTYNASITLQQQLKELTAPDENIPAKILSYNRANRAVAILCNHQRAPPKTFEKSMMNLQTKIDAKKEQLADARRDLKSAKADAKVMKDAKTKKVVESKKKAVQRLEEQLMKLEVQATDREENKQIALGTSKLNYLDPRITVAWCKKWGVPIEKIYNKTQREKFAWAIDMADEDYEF
Experiment: Topoisomerase I activity inhibition test
Format: biochemical
Conditions: supercoiled plasmid DNA, 37° C., 60 minutes
Method: For measuring topoisomerase I activity inhibitory actions, Human DNA Topoisomerase I Assay Kit (manufactured by ProFoldin, HRA100K) was used. A human topoisomerase I (manufactured by Sigma, T9069) was added to a Tris-HCl buffer containing KCl, DTT, MgCl2, EDTA, and BSA to prepare a reaction solution. The reaction solution (35.2 μL) and a test compound solution (4.4 μL) prepared by an aqueous solution containing 10% DMSO were mixed in a 1.5 mL microtube, and the resulting mixture was reacted at 37° C. for 10 minutes. Subsequently, a supercoiled plasmid DNA (4.4 μL) was added thereto, and the resulting mixture was reacted at 37° C. for 60 minutes. After the reaction, the solution was added to a 96 well plate (manufactured by Corning Inc., 3904) at 40 μL/well, and a Dye H19 solution (250 μL) diluted 10 times with the buffer included with the kit was added thereto. A microplate reader (Infinite F500, manufactured by TECAN) was used to measure the fluorescence intensity (excitation wavelength: 485 nm, detection wavelength: 535 nm) of each well.
The topoisomerase I activity inhibition rate (%) was calculated by the following equation.

Structure (SMILES)	IC50 [µM]
CC[C@@]1(O)C(=O)OCc2c1cc1n(c2=O)Cc2c-1nc1cc(F)c(C)c3c1c2[C@@H](NC(C)=O)CC3 [Example U-001]	≤ 15
CC[C@@]1(O)C(=O)OCc2c1cc1n(c2=O)Cc2c-1nc1cc(F)c(C)c3c1c2[C@@H](NC(=O)CCO)CC3 [Example U-002]	≤ 15
CC[C@@]1(O)C(=O)OCc2c1cc1n(c2=O)Cc2c-1nc1cc(F)c(C)c3c1c2[C@@H](NC(=O)CNC)CC3 [Example U-003]	≤ 15
CC[C@@]1(O)C(=O)OCc2c1cc1n(c2=O)Cc2c-1nc1cc(F)c(C)c3c1c2[C@@H](NC(=O)c1cccc(N)c1)CC3 [Example U-004]	≤ 15
CC[C@@]1(O)C(=O)OCc2c1cc1n(c2=O)Cc2c-1nc1cc(F)c(C)c3c1c2[C@@H](NC(=O)c1ccc(N)cc1)CC3 [Example U-005]	≤ 15
CC[C@@]1(O)C(=O)OCc2c1cc1n(c2=O)Cc2c-1nc1cc(F)c(C)c3c1c2[C@@H](NC(=O)Cc1cccc(N)c1)CC3 [Example U-006]	≤ 15
CC[C@@]1(O)C(=O)OCc2c1cc1n(c2=O)Cc2c-1nc1cc(F)c(C)c3c1c2[C@@H](NC(=O)Cc1ccc(N)cc1)CC3 [Example U-007]	≤ 15
